Test system: 991263-137-R1-J2-PDC complex spheroid viability
Assay: Anticancer human tumor 991263-137-R1-J2-PDC patient-derived colon adenocarcinoma cell line growth inhibition [POLQ]
Settings: for IC50: curve of first compound; for viability, T/C: stronger effect = lower value
Outline: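 Three-cell-type spheroids modelling solid tumor plus stroma served as the readout system; POL inhibitors were tested individually and in combination, concentration ranges set by clinical Cmax where known.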

[1] = second compound 0.0316 µM, first compound 0.0316 µM
[2] = second compound 0.0316 µM, first compound 0.1 µM
[3] = second compound 0.0316 µM, first compound 0.316 µM
[4] = second compound 0.0316 µM, first compound 1 µM
[5] = second compound 0.0316 µM, first compound 3.16 µM
[6] = second compound 0.0316 µM, first compound 10 µM
[7] = second compound 0.1 µM, first compound 0.0316 µM
[8] = second compound 0.1 µM, first compound 0.1 µM
[9] = second compound 0.1 µM, first compound 0.316 µM
[10] = second compound 0.1 µM, first compound 1 µM
[11] = second compound 0.1 µM, first compound 3.16 µM
[12] = second compound 0.1 µM, first compound 10 µM
[13] = second compound 0.316 µM, first compound 0.0316 µM
[14] = second compound 0.316 µM, first compound 0.1 µM
[15] = second compound 0.316 µM, first compound 0.316 µM
[16] = second compound 0.316 µM, first compound 1 µM
[17] = second compound 0.316 µM, first compound 3.16 µM
[18] = second compound 0.316 µM, first compound 10 µM
[19] = second compound 1 µM, first compound 0.0316 µM
[20] = second compound 1 µM, first compound 0.1 µM
[21] = second compound 1 µM, first compound 0.316 µM
[22] = second compound 1 µM, first compound 1 µM
[23] = second compound 1 µM, first compound 3.16 µM
[24] = second compound 1 µM, first compound 10 µM
[25] = second compound 3.16 µM, first compound 0.0316 µM
[26] = second compound 3.16 µM, first compound 0.1 µM
[27] = second compound 3.16 µM, first compound 0.316 µM
[28] = second compound 3.16 µM, first compound 1 µM
[29] = second compound 3.16 µM, first compound 3.16 µM
[30] = second compound 3.16 µM, first compound 10 µM
[31] = second compound 10 µM, first compound 0.0316 µM
[32] = second compound 10 µM, first compound 0.1 µM
[33] = second compound 10 µM, first compound 0.316 µM
[34] = second compound 10 µM, first compound 1 µM
[35] = second compound 10 µM, first compound 3.16 µM
[36] = second compound 10 µM, first compound 10 µM
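Note: spheroids exposed to compounds for 7 days before readout.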
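Throughout, for viability, T/C: 100% = DMSO vehicle control viability.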

CC1COCCN1c1cc(-c2ccnn2C)c2ccnc(-c3ccn[nH]3)c2n1 (stereo not drawn) + Nc1ccc(C#CCN(C(=O)Cc2ncc(C(F)(F)F)cc2C(F)(F)F)c2ccc(F)cc2)nn1
IC50 (second compound 0.0316 µM): 1140 nM | IC50 (second compound 0.1 µM): 1610 nM | IC50 (second compound 0.316 µM): 1150 nM | IC50 (second compound 1 µM): 1400 nM | IC50 (second compound 3.16 µM): 1110 nM | IC50 (second compound 10 µM): 918 nM | viability, T/C [1]: 105% | viability, T/C [2]: 93.8% | viability, T/C [3]: 75.6% | viability, T/C [4]: 50.6% | viability, T/C [5]: 38.6% | viability, T/C [6]: 32.5% | viability, T/C [7]: 105% | viability, T/C [8]: 88.7% | viability, T/C [9]: 69.5% | viability, T/C [10]: 58.4% | viability, T/C [11]: 39.9% | viability, T/C [12]: 32.5% | viability, T/C [13]: 99.4% | viability, T/C [14]: 107% | viability, T/C [15]: 74.4% | viability, T/C [16]: 53.7% | viability, T/C [17]: 40.6% | viability, T/C [18]: 32% | viability, T/C [19]: 108% | viability, T/C [20]: 94% | viability, T/C [21]: 75.5% | viability, T/C [22]: 53.4% | viability, T/C [23]: 40.4% | viability, T/C [24]: 31.1% | viability, T/C [25]: 103% | viability, T/C [26]: 95.8% | viability, T/C [27]: 72.5% | viability, T/C [28]: 53% | viability, T/C [29]: 35.8% | viability, T/C [30]: 31.1% | viability, T/C [31]: 93.9% | viability, T/C [32]: 88.2% | viability, T/C [33]: 73% | viability, T/C [34]: 46.2% | viability, T/C [35]: 42.6% | viability, T/C [36]: 33.8%

CC1COCCN1c1cc(C2(S(C)(=N)=O)CC2)nc(-c2ccnc3[nH]ccc23)n1 (stereo not drawn) + Nc1ccc(C#CCN(C(=O)Cc2ncc(C(F)(F)F)cc2C(F)(F)F)c2ccc(F)cc2)nn1
IC50 (second compound 0.0316 µM): > 10000 nM | IC50 (second compound 0.1 µM): > 10000 nM | IC50 (second compound 0.316 µM): > 10000 nM | IC50 (second compound 1 µM): > 10000 nM | IC50 (second compound 3.16 µM): > 10000 nM | IC50 (second compound 10 µM): > 10000 nM | viability, T/C [1]: 100% | viability, T/C [2]: 104% | viability, T/C [3]: 108% | viability, T/C [4]: 109% | viability, T/C [5]: 97.5% | viability, T/C [6]: 86% | viability, T/C [7]: 114% | viability, T/C [8]: 110% | viability, T/C [9]: 93.9% | viability, T/C [10]: 105% | viability, T/C [11]: 108% | viability, T/C [12]: 97.2% | viability, T/C [13]: 97.7% | viability, T/C [14]: 103% | viability, T/C [15]: 110% | viability, T/C [16]: 103% | viability, T/C [17]: 108% | viability, T/C [18]: 89.2% | viability, T/C [19]: 119% | viability, T/C [20]: 109% | viability, T/C [21]: 106% | viability, T/C [22]: 106% | viability, T/C [23]: 104% | viability, T/C [24]: 85.1% | viability, T/C [25]: 101% | viability, T/C [26]: 102% | viability, T/C [27]: 102% | viability, T/C [28]: 97.5% | viability, T/C [29]: 101% | viability, T/C [30]: 83.9% | viability, T/C [31]: 109% | viability, T/C [32]: 106% | viability, T/C [33]: 115% | viability, T/C [34]: 99.5% | viability, T/C [35]: 93.4% | viability, T/C [36]: 63.6%

CNCc1ccc(-c2[nH]c3cc(F)cc4c3c2CCNC4=O)cc1 + Nc1ccc(C#CCN(C(=O)Cc2ncc(C(F)(F)F)cc2C(F)(F)F)c2ccc(F)cc2)nn1
IC50 (second compound 0.0316 µM): > 10000 nM | IC50 (second compound 0.1 µM): > 10000 nM | IC50 (second compound 0.316 µM): > 10000 nM | IC50 (second compound 1 µM): > 10000 nM | IC50 (second compound 3.16 µM): > 10000 nM | IC50 (second compound 10 µM): > 10000 nM | viability, T/C [1]: 98.4% | viability, T/C [2]: 91.8% | viability, T/C [3]: 98.2% | viability, T/C [4]: 93.4% | viability, T/C [5]: 97.7% | viability, T/C [6]: 117% | viability, T/C [7]: 112% | viability, T/C [8]: 99.5% | viability, T/C [9]: 114% | viability, T/C [10]: 95.1% | viability, T/C [11]: 110% | viability, T/C [12]: 108% | viability, T/C [13]: 104% | viability, T/C [14]: 97.2% | viability, T/C [15]: 96.3% | viability, T/C [16]: 101% | viability, T/C [17]: 93.2% | viability, T/C [18]: 119% | viability, T/C [19]: 99.2% | viability, T/C [20]: 90.1% | viability, T/C [21]: 93% | viability, T/C [22]: 97% | viability, T/C [23]: 106% | viability, T/C [24]: 106% | viability, T/C [25]: 94.5% | viability, T/C [26]: 98% | viability, T/C [27]: 103% | viability, T/C [28]: 99.7% | viability, T/C [29]: 97.1% | viability, T/C [30]: 100% | viability, T/C [31]: 88.1% | viability, T/C [32]: 97.5% | viability, T/C [33]: 99.3% | viability, T/C [34]: 94.5% | viability, T/C [35]: 103% | viability, T/C [36]: 109%

Cn1ncnc1[C@H]1c2n[nH]c(=O)c3cc(F)cc(c23)N[C@@H]1c1ccc(F)cc1 + Nc1ccc(C#CCN(C(=O)Cc2ncc(C(F)(F)F)cc2C(F)(F)F)c2ccc(F)cc2)nn1
IC50 (second compound 0.0316 µM): > 100 nM | IC50 (second compound 0.1 µM): > 100 nM | IC50 (second compound 0.316 µM): > 100 nM | IC50 (second compound 1 µM): > 100 nM | IC50 (second compound 3.16 µM): > 100 nM | IC50 (second compound 10 µM): > 100 nM | viability, T/C (second compound 0.0316 µM, first compound 0.000316 µM): 106% | viability, T/C (second compound 0.0316 µM, first compound 0.001 µM): 97.1% | viability, T/C (second compound 0.0316 µM, first compound 0.00316 µM): 99.6% | viability, T/C (second compound 0.0316 µM, first compound 0.01 µM): 98.8% | viability, T/C [1]: 106% | viability, T/C [2]: 94% | viability, T/C (second compound 0.1 µM, first compound 0.000316 µM): 99.1% | viability, T/C (second compound 0.1 µM, first compound 0.001 µM): 102% | viability, T/C (second compound 0.1 µM, first compound 0.00316 µM): 95.2% | viability, T/C (second compound 0.1 µM, first compound 0.01 µM): 107% | viability, T/C [7]: 106% | viability, T/C [8]: 110% | viability, T/C (second compound 0.316 µM, first compound 0.000316 µM): 93.7% | viability, T/C (second compound 0.316 µM, first compound 0.001 µM): 95.1% | viability, T/C (second compound 0.316 µM, first compound 0.00316 µM): 94.2% | viability, T/C (second compound 0.316 µM, first compound 0.01 µM): 105% | viability, T/C [13]: 109% | viability, T/C [14]: 82.9% | viability, T/C (second compound 1 µM, first compound 0.000316 µM): 96.8% | viability, T/C (second compound 1 µM, first compound 0.001 µM): 103% | viability, T/C (second compound 1 µM, first compound 0.00316 µM): 112% | viability, T/C (second compound 1 µM, first compound 0.01 µM): 109% | viability, T/C [19]: 104% | viability, T/C [20]: 94.5% | viability, T/C (second compound 3.16 µM, first compound 0.000316 µM): 101% | viability, T/C (second compound 3.16 µM, first compound 0.001 µM): 92% | viability, T/C (second compound 3.16 µM, first compound 0.00316 µM): 98.3% | viability, T/C (second compound 3.16 µM, first compound 0.01 µM): 97.7% | viability, T/C [25]: 101% | viability, T/C [26]: 112% | viability, T/C (second compound 10 µM, first compound 0.000316 µM): 99.3% | viability, T/C (second compound 10 µM, first compound 0.001 µM): 106% | viability, T/C (second compound 10 µM, first compound 0.00316 µM): 97.1% | viability, T/C (second compound 10 µM, first compound 0.01 µM): 103% | viability, T/C [31]: 101% | viability, T/C [32]: 110%
